According to patent US8222430B2, “1-heterodiene derivative and harmful organism control agent” (priority 2008, dated 2012):
Where two headings read alike, the source gives them in different places.

Columns and labels:
Pseudaletia separate = assay: Confirmation of efficacy against Pseudaletia separate (maize leaf soak, insect mortality); format: in vivo; settings: 120 h, maize leaves soaked 30 seconds, second-instar larvae, after five days, 25° C., humidity 65%, read-out: mortality rate
Source text: Maize leaves were soaked in the resulting chemical solution for 30 seconds and air-dried. Then the leaves were put on Petri dishes lined with a filter paper, followed by inoculating 5 second-instar larvae. […] Mortality was investigated after five days, and the insect mortality rate was obtained. The test was repeated twice.

Bemisia tabaci = assay: Confirmation of efficacy against Bemisia tabaci (sprayed detached tomato leaves, insect mortality); format: in vivo; settings: 72 h, B type adults, after three days, 25° C., humidity 65%, read-out: mortality rate
Source text: Detached tomato leaves were sprayed with the resulting chemical solution and air-dried. Then, the leaves were set on flasks in a manner that the surface of the leaves face upward. […] The test was repeated twice.

Aphis gossypii = assay: Confirmation of efficacy against Aphis gossypii (cucumber seedlings, insect mortality); format: in vivo; settings: 120 h, read-out: mortality rate
Source text: Mortality was investigated after five days, and the insect mortality rate was obtained.
The test was repeated twice.

[1] = system: Tetranychus urticae with organophosphate resistance; assay: Confirmation of efficacy against Tetranychus urticae (bean seedlings, mortality); settings: for mortality rate: 125 ppm, sprayed bean seedlings, female adults with organophosphate resistance, after three days, 25° C., humidity 65%
[2] = 125 ppm, cucumber seedlings parasitized with offspring, after five days, 25° C., humidity 65%

SMILES	mortality at 125 ppm (Pseudaletia separate)	mortality at 125 ppm (Bemisia tabaci)	mortality rate [1]	further results
C(/Sc1ccccc1)=C1/CCS/C1=N\c1ccccc1 [Compound 1a-1, (Z)—N-((E)-3-(phenylthiomethylene)dihydrothiophen-2(3H)-ylidene)aniline]	100%	100%	–	–
C(/Sc1ccccc1)=C1/CCCS/C1=N\c1ccccc1 [Compound 2a-1, (Z)—N-((E)-3-(phenylthiomethylene)tetrahydro-2H-thiopyran-2-ylidene) aniline]	100%	100%	–	mortality at 125 ppm (Aphis gossypii; [2]): 100%
Cc1ccc(/N=C2\SCCC\C2=C/Sc2ccc(F)cc2)cc1 [Compound 2a-78]	–	–	100%	–
Cc1ccc(/N=C2\OC(C)CC\C2=C/Sc2ccccc2)cc1 (centres unmarked) [Compound 2a-83]	–	–	100%	–
CCCC1CCC(=C\Sc2ccccc2)/C(=N/c2ccc(C)cc2)O1 (centres unmarked) [Compound 2a-84]	–	–	100%	–
Cc1ccc(/N=C2\OC(C)(C)CC\C2=C/Sc2ccccc2)cc1 [Compound 2a-85]	–	–	100%	–
Cc1ccc(/N=C2\OC(c3ccccc3)CC\C2=C/Sc2ccccc2)cc1 (centres unmarked) [Compound 2a-86]	–	–	100%	–
Cc1ccc(/N=C2\OC3CCCCC3C\C2=C/Sc2ccccc2)cc1 (centres unmarked) [Compound 5a-1]	100%	100%	–	mortality at 125 ppm (Aphis gossypii; [2]): 100%
Cc1ccc(/N=C2\OCc3ccccc3\C2=C/Sc2ccccc2)cc1 [Compound 5a-2]	100%	–	–	–
Cc1ccc(/N=C2\OC3CCCCC3\C2=C/Sc2ccccc2)cc1 (centres unmarked) [Compound 5a-3]	100%	100%	–	–
Clc1ccc(/N=C2\SC3C=CCCC3C\C2=C/Sc2ccccc2)cc1 (centres unmarked) [Compound 5a-5, (4-chloro-phenyl)-{3-[1-phenylsulfanyl-(E)-methylidene]-3,4,4a,5,6,8a-hexahydro-thiochromene-(2Z)-ylidene}-amine]	100%	100%	–	mortality at 125 ppm (Aphis gossypii): 100%; mortality at 125 ppm ([1]; Tetranychus urticae, 72 h, read-out: mortality rate): 100%
